Measured values published in PubChem BioAssay AID256 (DTP/NCI, 2004).
“And” between values parts separate entries of the source, which are not always exact repeats. Equal entries are not always repeated. Inconclusive results and toxic doses are left out. Rule for the calls: active = survival T/C of 150% or more; inactive = T/C below 125% in these data.

System: CD2F1 mice, L1210 leukemia ip, survival T/C
Assay: NCI In Vivo Anticancer Drug Screen. Data for tumor model L1210 Leukemia (intraperitoneal) in CD2F1 (CDF1) mice
Conditions: higher = longer survival
In short: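 Ratio T/C, where T is the treated-group value and C the vehicle-dosed control value, from mice implanted with a transplantable tumor.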

[1] = endpoint: mean survival time, dose: 100.0 mg/kg/injection, schedule: Q01DX001 (ip), vehicle: saline
[2] = endpoint: mean survival time, dose: 200.0 mg/kg/injection, schedule: Q01DX001 (ip), vehicle: saline
[3] = endpoint: mean survival time, dose: 100.0 mg/kg/injection, schedule: Q01DX009 (ip), vehicle: saline with Tween-80
[4] = endpoint: mean survival time, dose: 200.0 mg/kg/injection, schedule: Q01DX009 (ip), vehicle: saline with Tween-80
[5] = endpoint: mean survival time, dose: 400.0 mg/kg/injection, schedule: Q01DX009 (ip), vehicle: saline with Tween-80
[6] = endpoint: mean survival time, dose: 75.0 mg/kg/injection, schedule: Q01DX001 (ip), vehicle: saline
[7] = endpoint: mean survival time, dose: 150.0 mg/kg/injection, schedule: Q01DX001 (ip), vehicle: saline
[8] = endpoint: mean survival time, dose: 100.0 mg/kg/injection, schedule: Q01DX001 (ip), vehicle: saline with Tween-80
[9] = endpoint: mean survival time, dose: 200.0 mg/kg/injection, schedule: Q01DX001 (ip), vehicle: saline with Tween-80
[10] = endpoint: mean survival time, dose: 400.0 mg/kg/injection, schedule: Q01DX001 (ip), vehicle: saline with Tween-80
[11] = endpoint: mean survival time, dose: 100.0 mg/kg/injection, schedule: Q04DX002 (ip), vehicle: saline with Tween-80
[12] = endpoint: mean survival time, dose: 25.0 mg/kg/injection, schedule: Q04DX002 (ip), vehicle: saline with Tween-80
[13] = endpoint: mean survival time, dose: 50.0 mg/kg/injection, schedule: Q04DX002 (ip), vehicle: saline with Tween-80

Measured: T/C

COC1OC(CCl)C(Cl)C2OS(=O)(=O)OC12 (stereo unspecified)
inactive: [1] 97 % of control | [2] 100 % of control | endpoint: mean survival time, dose: 400.0 mg/kg/injection, schedule: Q01DX001 (ip), vehicle: saline 96 % of control

CCOCc1cccc2ccccc12
inactive: [3] 98 % of control | [4] 102 % of control | [5] 94 % of control

N#CCCCN1CCCCC1
inactive: endpoint: mean survival time, dose: 6.25 mg/kg/injection, schedule: Q01DX009 (ip), vehicle: saline with Tween-80 103 % of control | endpoint: mean survival time, dose: 6.25 mg/kg/injection, schedule: Q04DX003 (ip), vehicle: saline 89 % of control | endpoint: mean survival time, dose: 12.5 mg/kg/injection, schedule: Q01DX009 (ip), vehicle: saline with Tween-80 97 % of control | endpoint: mean survival time, dose: 12.5 mg/kg/injection, schedule: Q04DX003 (ip), vehicle: saline 98 % of control | endpoint: mean survival time, dose: 25.0 mg/kg/injection, schedule: Q01DX009 (ip), vehicle: saline with Tween-80 100 % of control | endpoint: mean survival time, dose: 25.0 mg/kg/injection, schedule: Q04DX003 (ip), vehicle: saline 93 % of control

CNNCCO
inactive: endpoint: mean survival time, dose: 50.0 mg/kg/injection, schedule: Q01DX001 (ip), vehicle: saline 104 % of control | [1] 101 % of control | [2] 101 % of control

CCC1(O)C(=O)OCc2c1cc1n(c2=O)Cc2cc3ccc(N(C)C)cc3nc2-1 (stereo unspecified)
inactive: endpoint: median survival time, dose: 10.0 mg/kg/injection, schedule: Q04DX002 (ip), vehicle: saline with Tween-80 103 % of control | endpoint: median survival time, dose: 20.0 mg/kg/injection, schedule: Q04DX002 (ip), vehicle: saline with Tween-80 106 % of control | endpoint: median survival time, dose: 40.0 mg/kg/injection, schedule: Q04DX002 (ip), vehicle: saline with Tween-80 106 % of control | endpoint: median survival time, dose: 80.0 mg/kg/injection, schedule: Q04DX002 (ip), vehicle: saline with Tween-80 112 % of control

CC(O)(P(=O)(O)O)P(=O)(O)O.[NH-]CC[NH-].[NH-]CC[NH-].[Pd+2].[Pd+2]
inactive: endpoint: mean survival time, dose: 3.13 mg/kg/injection, schedule: Q04DX003 (ip), vehicle: water 106 % of control | endpoint: mean survival time, dose: 6.25 mg/kg/injection, schedule: Q04DX003 (ip), vehicle: water 103 % of control | endpoint: mean survival time, dose: 12.5 mg/kg/injection, schedule: Q04DX003 (ip), vehicle: water 87 % of control | endpoint: mean survival time, dose: 25.0 mg/kg/injection, schedule: Q04DX003 (ip), vehicle: water 103 % of control | endpoint: mean survival time, dose: 50.0 mg/kg/injection, schedule: Q04DX003 (ip), vehicle: water 93 % of control | endpoint: mean survival time, dose: 100.0 mg/kg/injection, schedule: Q04DX003 (ip), vehicle: water 102 % of control

COc1cc2ccc(-c3cc(C(=O)O)c4ccccc4n3)cc2cc1OC
inactive: [6] 93 % of control | [7] 93 % of control

CC(O)C1=CC(c2ccccc2)(c2ccccc2)c2ccccc21 (stereo unspecified)
inactive: [8] 95 % of control | [9] 91 % of control | [10] 88 % of control

CC1=C2C3OC(=O)C(C)C3CCC2(C)C=CC1=O (stereo unspecified)
inactive: [11] 116 % of control | endpoint: mean survival time, dose: 200.0 mg/kg/injection, schedule: Q04DX002 (ip), vehicle: saline with Tween-80 116 % of control

CC/C(C)=C(/C(=O)O)c1ccccc1
inactive: [3] 95 % of control | [4] 98 % of control | [5] 97 % of control

CC1(C)C2CC=C(CCCc3ccccc3)C1C2 (stereo unspecified)
inactive: endpoint: mean survival time, dose: 100.0 mg/kg/injection, schedule: Q04DX003 (ip), vehicle: saline with Tween-80 98 % of control | endpoint: mean survival time, dose: 200.0 mg/kg/injection, schedule: Q04DX003 (ip), vehicle: saline with Tween-80 93 % of control

CCN(C(=O)CCl)C(C)(C)C(SSSC(c1ccc(Cl)cc1)C(C)(C)N(CC)C(=O)CCl)c1ccc(Cl)cc1 (stereo unspecified)
inactive: endpoint: mean survival time, dose: 12.5 mg/kg/injection, schedule: Q01DX009 (ip), vehicle: saline 96 % of control | endpoint: mean survival time, dose: 25.0 mg/kg/injection, schedule: Q01DX009 (ip), vehicle: saline 102 % of control | endpoint: mean survival time, dose: 50.0 mg/kg/injection, schedule: Q01DX009 (ip), vehicle: saline 95 % of control and 106 % of control | endpoint: mean survival time, dose: 100.0 mg/kg/injection, schedule: Q01DX009 (ip), vehicle: saline 100 % of control

CC(=O)c1cccc(OC(=O)c2ccccc2)c1
inactive: [8] 104 % of control | [3] 97 % of control | [9] 94 % of control | [4] 94 % of control | [10] 104 % of control | [5] 91 % of control

COc1ccc(CCF)cc1
inactive: [8] 110 % of control | [9] 100 % of control | [10] 114 % of control

CC(C)(CCC(=O)O)C(=O)O
inactive: endpoint: mean survival time, dose: 50.0 mg/kg/injection, schedule: Q01DX009 (ip), vehicle: saline with Tween-80 100 % of control | [3] 98 % of control | endpoint: mean survival time, dose: 100.0 mg/kg/injection, schedule: Q04DX003 (ip), vehicle: saline 102 % of control | [4] 98 % of control | endpoint: mean survival time, dose: 200.0 mg/kg/injection, schedule: Q04DX003 (ip), vehicle: saline 96 % of control

CC(C)(CCC#N)/C(=N\Nc1ccc([N+](=O)[O-])cc1[N+](=O)[O-])c1ccccc1
inactive: endpoint: mean survival time, dose: 75.0 mg/kg/injection, schedule: Q04DX002 (ip), vehicle: saline with Tween-80 90 % of control | endpoint: mean survival time, dose: 150.0 mg/kg/injection, schedule: Q04DX002 (ip), vehicle: saline with Tween-80 102 % of control | endpoint: mean survival time, dose: 300.0 mg/kg/injection, schedule: Q04DX002 (ip), vehicle: saline with Tween-80 94 % of control

COc1cc(NC(C)=O)ccn1
inactive: [3] 95 % of control | [4] 96 % of control | [5] 102 % of control

Nc1nnnn1-c1cccc(Cl)c1
inactive: [3] 96 % of control | [4] 102 % of control | [5] 106 % of control

CC1CCCC(CN=Cc2ccccc2O)[N-]1.CC1CCCC(CN=Cc2ccccc2O)[N-]1.[Ni+2] (stereo unspecified)
inactive: endpoint: mean survival time, dose: 6.25 mg/kg/injection, schedule: Q04DX002 (ip), vehicle: saline with Tween-80 98 % of control | endpoint: mean survival time, dose: 12.5 mg/kg/injection, schedule: Q04DX002 (ip), vehicle: saline with Tween-80 95 % of control | [12] 91 % of control and 95 % of control | [13] 91 % of control | [11] 97 % of control

CO[C@H]1C[C@](C)(O)Cc2cc3c(c(O)c21)C(=O)c1c(O)cc2c(c1C3=O)O[C@@H]1O[C@@]2(C)[C@H](O)[C@@H](N(C)C)[C@@H]1O
active: endpoint: mean survival time, dose: 3.13 mg/kg/injection, schedule: Q01DX009 (ip), vehicle: other 151 % of control | endpoint: mean survival time, dose: 12.5 mg/kg/injection, schedule: Q01DX009 (oral), vehicle: other 153 % of control | endpoint: mean survival time, dose: 25.0 mg/kg/injection, schedule: Q01DX009 (oral), vehicle: other 208 % of control | endpoint: mean survival time, dose: 25.0 mg/kg/injection, schedule: Q01DX009 (oral), vehicle: saline 183 % of control | endpoint: mean survival time, dose: 50.0 mg/kg/injection, schedule: Q01DX009 (oral), vehicle: saline 168 % of control | endpoint: median survival time, dose: 6.7 mg/kg/injection, schedule: Q01DX009 (ip), vehicle: other 197 % of control and 225 % of control | endpoint: median survival time, dose: 10.0 mg/kg/injection, schedule: Q01DX009 (ip), vehicle: other 208 % of control and 250 % of control | endpoint: median survival time, dose: 15.0 mg/kg/injection, schedule: Q01DX009 (ip), vehicle: other 302 % of control and 332 % of control | endpoint: median survival time, dose: 22.5 mg/kg/injection, schedule: Q01DX009 (ip), vehicle: other 152 % of control and 169 % of control
inactive: endpoint: mean survival time, dose: 0.78 mg/kg/injection, schedule: Q01DX009 (ip), vehicle: other 123 % of control and 112 % of control | endpoint: mean survival time, dose: 3.12 mg/kg/injection, schedule: Q01DX009 (ip), vehicle: other 117 % of control | endpoint: mean survival time, dose: 3.13 mg/kg/injection, schedule: Q01DX009 (oral), vehicle: other 112 % of control | endpoint: mean survival time, dose: 3.13 mg/kg/injection, schedule: Q01DX009 (oral), vehicle: saline 102 % of control | endpoint: mean survival time, dose: 6.25 mg/kg/injection, schedule: Q01DX009 (oral), vehicle: other 116 % of control | endpoint: mean survival time, dose: 6.25 mg/kg/injection, schedule: Q01DX009 (oral), vehicle: saline 116 % of control | endpoint: mean survival time, dose: 50.0 mg/kg/injection, schedule: Q01DX009 (oral), vehicle: other 102 % of control

COC(=O)C1OC(Sc2ncnc3nc[nH]c23)C(O)C(O)C1O (stereo unspecified)
inactive: endpoint: median survival time, dose: 25.0 mg/kg/injection, schedule: Q01DX005 (ip), vehicle: water 98 % of control | endpoint: median survival time, dose: 50.0 mg/kg/injection, schedule: Q01DX005 (ip), vehicle: water 109 % of control | endpoint: median survival time, dose: 100.0 mg/kg/injection, schedule: Q01DX005 (ip), vehicle: water 109 % of control | endpoint: median survival time, dose: 200.0 mg/kg/injection, schedule: Q01DX005 (ip), vehicle: water 113 % of control and 118 % of control | endpoint: median survival time, dose: 400.0 mg/kg/injection, schedule: Q01DX005 (ip), vehicle: water 119 % of control

C=COC(=O)NC(CC(C)C)C(=O)O (stereo unspecified)
inactive: [6] 103 % of control | [7] 101 % of control

CC(=O)CC(=O)Nc1nccs1
inactive: [12] 110 % of control | [13] 107 % of control | [11] 93 % of control

CC(C)=CCOC1=CC(=O)C(=O)c2ccccc21
inactive: [8] 103 % of control
